Reference: ChEMBL document CHEMBL5550123, “Discovery of novel pyridone-benzamide derivatives possessing a 1-methyl-2-benzimidazolinone moiety as potent EZH2 inhibitors for the treatment of B-cell lymphomas” (Bioorg Med Chem, 2024)

What was measured:
KARPAS-422 [1] = test: Induction of apoptosis in human KARPAS-422 cells assessed as early apoptotic cells at 10 nM incubated for 72 hrs again compound diluted in growth medium measured after 96 hrs by annexin-V FITC and propidium iodide based flow cytometry analysis (reference value: 2.62%); type: functional; conditions: time 168 hrs
KARPAS-422 [2] = test: Induction of apoptosis in human KARPAS-422 cells assessed as late apoptotic cells at 10 nM incubated for 72 hrs again compound diluted in growth medium measured after 96 hrs by annexin-V FITC and propidium iodide based flow cytometry analysis (reference value: 0.74%); type: functional; conditions: time 168 hrs
KARPAS-422 [3] = test: Induction of apoptosis in human KARPAS-422 cells assessed as late apoptotic cells at 20 nM incubated for 72 hrs again compound diluted in growth medium measured after 96 hrs by annexin-V FITC and propidium iodide based flow cytometry analysis (reference value: 0.74%); type: functional; conditions: time 168 hrs
KARPAS-422 [4] = test: Induction of apoptosis in human KARPAS-422 cells assessed as late apoptotic cells at 10 nM incubated for 72 hrs again compound diluted in growth medium measured after 96 hrs by annexin-V FITC and propidium iodide based flow cytometry analysis (reference value: […]%); type: functional; conditions: time 168 hrs
KARPAS-422 [5] = test: Induction of cell cycle arrest in human KARPAS-422 cells assessed as accumulation of cells at S phase at 20 nM incubated for 72 hrs again compound diluted in growth medium measured after 96 hrs by propidium iodide staining based flow cytometry analysis (reference value: 35.89%); type: functional; conditions: time 168 hrs
KARPAS-422 [6] = test: Induction of apoptosis in human KARPAS-422 cells assessed as early apoptotic cells at 2.5 nM incubated for 72 hrs again compound diluted in growth medium measured after 96 hrs by annexin-V FITC and propidium iodide based flow cytometry analysis (reference value: 2.62%); type: functional; conditions: time 168 hrs
KARPAS-422 [7] = test: Induction of cell cycle arrest in human KARPAS-422 cells assessed as accumulation of cells at G1 phase at 5 nM incubated for 72 hrs again compound diluted in growth medium measured after 96 hrs by propidium iodide staining based flow cytometry analysis (reference value: 47.71%); type: functional; conditions: time 168 hrs
KARPAS-422 [8] = test: Induction of cell cycle arrest in human KARPAS-422 cells assessed as accumulation of cells at G2 phase at 10 nM incubated for 72 hrs again compound diluted in growth medium measured after 96 hrs by propidium iodide staining based flow cytometry analysis (reference value: 16.41%); type: functional; conditions: time 168 hrs
KARPAS-422 [9] = test: Induction of apoptosis in human KARPAS-422 cells assessed as late apoptotic cells at 5 nM incubated for 72 hrs again compound diluted in growth medium measured after 96 hrs by annexin-V FITC and propidium iodide based flow cytometry analysis (reference value: […]%); type: functional; conditions: time 168 hrs
KARPAS-422 [10] = test: Induction of cell cycle arrest in human KARPAS-422 cells assessed as accumulation of cells at G1 phase at 20 nM incubated for 72 hrs again compound diluted in growth medium measured after 96 hrs by propidium iodide staining based flow cytometry analysis (reference value: 47.71%); type: functional; conditions: time 168 hrs
KARPAS-422 [11] = test: Induction of cell cycle arrest in human KARPAS-422 cells assessed as accumulation of cells at S phase at 2.5 nM incubated for 72 hrs again compound diluted in growth medium measured after 96 hrs by propidium iodide staining based flow cytometry analysis (reference value: 35.89%); type: functional; conditions: time 168 hrs
[12] = Inhibition of EZH2 Y641F mutant (unknown origin) preincubated for 15 mins followed by substrate addition and measured after 45 mins by AlphaLISA assay; design: species or system Homo sapiens
KARPAS-422 [13] = test: Induction of apoptosis in human KARPAS-422 cells assessed as viable cells at 2.5 nM incubated for 72 hrs again compound diluted in growth medium measured after 96 hrs by annexin-V FITC and propidium iodide based flow cytometry analysis (reference value: 95.57%); type: functional; conditions: time 168 hrs, read-out: Activity
KARPAS-422 [14] = test: Induction of apoptosis in human KARPAS-422 cells assessed as viable cells at 10 nM incubated for 72 hrs again compound diluted in growth medium measured after 96 hrs by annexin-V FITC and propidium iodide based flow cytometry analysis (reference value: 95.57%); type: functional; conditions: time 168 hrs, read-out: Activity
KARPAS-422 [15] = test: Induction of apoptosis in human KARPAS-422 cells incubated for 72 hrs again compound diluted in growth medium measured after 96 hrs by annexin-V FITC and propidium iodide based flow cytometry analysis; type: functional, cell-based; conditions: dose 2.5-20 nM, time 168.0 hrs
KARPAS-422 [16] = test: Induction of apoptosis in human KARPAS-422 cells assessed as viable cells at 5 nM incubated for 72 hrs again compound diluted in growth medium measured after 96 hrs by annexin-V FITC and propidium iodide based flow cytometry analysis (reference value: 95.57%); type: functional; conditions: time 168 hrs, read-out: Activity
KARPAS-422 [17] = test: Induction of cell cycle arrest in human KARPAS-422 cells assessed as accumulation of cells at G2 phase at 2.5 nM incubated for 72 hrs again compound diluted in growth medium measured after 96 hrs by propidium iodide staining based flow cytometry analysis (reference value: 16.41%); type: functional; conditions: time 168 hrs
[18] = Metabolic stability in human liver microsomes assessed as half life at 1 uM measured upto 60 mins in presence of NADPH by LC-MS/MS analysis; type: ADME, Microsome
[19] = Inhibition of EZH2 Y641N mutant (unknown origin) preincubated for 15 mins followed by substrate addition and measured after 45 mins by AlphaLISA assay; design: species or system Homo sapiens
KARPAS-422 [20] = test: Induction of apoptosis in human KARPAS-422 cells assessed as early apoptotic cells at 5 nM incubated for 72 hrs again compound diluted in growth medium measured after 96 hrs by annexin-V FITC and propidium iodide based flow cytometry analysis (reference value: 2.62%); type: functional; conditions: time 168 hrs
KARPAS-422 [21] = test: Induction of cell cycle arrest in human KARPAS-422 cells assessed as accumulation of cells at G2 phase at 20 nM incubated for 72 hrs again compound diluted in growth medium measured after 96 hrs by propidium iodide staining based flow cytometry analysis (reference value: 16.41%); type: functional; conditions: time 168 hrs
KARPAS-422 [22] = test: Induction of apoptosis in human KARPAS-422 cells assessed as late apoptotic cells at 20 nM incubated for 72 hrs again compound diluted in growth medium measured after 96 hrs by annexin-V FITC and propidium iodide based flow cytometry analysis (reference value: […]%); type: functional; conditions: time 168 hrs
KARPAS-422 [23] = test: Induction of cell cycle arrest in human KARPAS-422 cells assessed as accumulation of cells at G1 phase at 10 nM incubated for 72 hrs again compound diluted in growth medium measured after 96 hrs by propidium iodide staining based flow cytometry analysis (reference value: 47.71%); type: functional; conditions: time 168 hrs
KARPAS-422 [24] = test: Induction of cell cycle arrest in human KARPAS-422 cells assessed as accumulation of cells at S phase at 10 nM incubated for 72 hrs again compound diluted in growth medium measured after 96 hrs by propidium iodide staining based flow cytometry analysis (reference value: 35.89%); type: functional; conditions: time 168 hrs
[25] = Metabolic stability in human liver microsomes assessed as intrinsic clearance at 1 uM measured upto 60 mins in presence of NADPH by LC-MS/MS analysis; type: ADME, Microsome; conditions: read-out: CLH
KARPAS-422 [26] = test: Induction of cell cycle arrest in human KARPAS-422 cells assessed as accumulation of cells at G1 phase at 2.5 nM incubated for 72 hrs again compound diluted in growth medium measured after 96 hrs by propidium iodide staining based flow cytometry analysis (reference value: 47.71%); type: functional; conditions: time 168 hrs
KARPAS-422 [27] = test: Antiproliferative activity against human KARPAS-422 cells assessed as inhibition of cell growth measured after 72 hrs by CCK-8 method; type: functional, cell-based; conditions: KARPAS-422, 72 h
KARPAS-422 [28] = test: Induction of apoptosis in human KARPAS-422 cells assessed as late apoptotic cells at 2.5 nM incubated for 72 hrs again compound diluted in growth medium measured after 96 hrs by annexin-V FITC and propidium iodide based flow cytometry analysis (reference value: 0.74%); type: functional; conditions: time 168 hrs
KARPAS-422 [29] = test: Induction of apoptosis in human KARPAS-422 cells assessed as early apoptotic cells at 20 nM incubated for 72 hrs again compound diluted in growth medium measured after 96 hrs by annexin-V FITC and propidium iodide based flow cytometry analysis (reference value: 2.62%); type: functional; conditions: time 168 hrs
KARPAS-422 [30] = test: Induction of apoptosis in human KARPAS-422 cells assessed as late apoptotic cells at 5 nM incubated for 72 hrs again compound diluted in growth medium measured after 96 hrs by annexin-V FITC and propidium iodide based flow cytometry analysis (reference value: 0.74%); type: functional; conditions: time 168 hrs
KARPAS-422 [31] = test: Induction of cell cycle arrest in human KARPAS-422 cells assessed as accumulation of cells at S phase at 5 nM incubated for 72 hrs again compound diluted in growth medium measured after 96 hrs by propidium iodide staining based flow cytometry analysis (reference value: 35.89%); type: functional; conditions: time 168 hrs
KARPAS-422 [32] = test: Induction of apoptosis in human KARPAS-422 cells assessed as viable cells at 20 nM incubated for 72 hrs again compound diluted in growth medium measured after 96 hrs by annexin-V FITC and propidium iodide based flow cytometry analysis (reference value: 95.57%); type: functional; conditions: time 168 hrs, read-out: Activity
KARPAS-422 [33] = test: Induction of cell cycle arrest in human KARPAS-422 cells assessed as accumulation of cells at G2 phase at 5 nM incubated for 72 hrs again compound diluted in growth medium measured after 96 hrs by propidium iodide staining based flow cytometry analysis (reference value: 16.41%); type: functional; conditions: time 168 hrs
KARPAS-422 [34] = test: Induction of apoptosis in human KARPAS-422 cells assessed as late apoptotic cells at 2.5 nM incubated for 72 hrs again compound diluted in growth medium measured after 96 hrs by annexin-V FITC and propidium iodide based flow cytometry analysis (reference value: […]%); type: functional; conditions: time 168 hrs

CCN(c1cc(-c2ccc3c(c2)n(C)c(=O)n3C2CCN(C)CC2)cc(C(=O)NCc2c(C)cc(C)[nH]c2=O)c1C)C1CCC(N(C)C)CC1 (centres undefined)
Activity (KARPAS-422 [1]): 7.93% | Activity (KARPAS-422 [2]): 5.47% | Activity (KARPAS-422 [3]): 12.28% | Activity (KARPAS-422 [4]): 4.8% | Activity (KARPAS-422 [5]): 24.24% | Activity (KARPAS-422 [6]): 4.23% | Activity (KARPAS-422 [7]): 55.91% | Activity (KARPAS-422 [8]): 14.6% | Activity (KARPAS-422 [9]): 2.96% | Activity (KARPAS-422 [10]): 65.03% | Activity (KARPAS-422 [11]): 31.43% | IC50 [12]: 0.03 nM | viability at 0.0025 µM (KARPAS-422 [13]): 89.3% | viability at 0.01 µM (KARPAS-422 [14]): 81.8% | Activity (KARPAS-422 [15]): Dose-Dependent Effect | viability at 0.005 µM (KARPAS-422 [16]): 86.7% | Activity (KARPAS-422 [17]): 16.32% | half-life at 1 µM [18]: 2.96 h | IC50 [19]: 0.08 nM | Activity (KARPAS-422 [20]): 2.29% | Activity (KARPAS-422 [21]): 10.74% | Activity (KARPAS-422 [22]): 6.81% | Activity (KARPAS-422 [23]): 59.1% | Activity (KARPAS-422 [24]): 26.31% | microsomal CLint at 1 µM [25]: 7.87 µL/min/mg | Activity (KARPAS-422 [26]): 52.26% | IC50 (KARPAS-422 [27]): 3.52 nM | Activity (KARPAS-422 [28]): 2.57% | Activity (KARPAS-422 [29]): 7.09% | Activity (KARPAS-422 [30]): 8.08% | Activity (KARPAS-422 [31]): 28.46% | viability at 0.02 µM (KARPAS-422 [32]): 73.8% | Activity (KARPAS-422 [33]): 15.64% | Activity (KARPAS-422 [34]): 3.84%
